Measured values taken from paper PMC7912796, “Design, Synthesis, Anticancer Activity, and Solid Lipid Nanoparticle Formulation of Indole- and Benzimidazole-Based Compounds as Pro-Apoptotic Agents Targeting Bcl-2 Protein” (Pharmaceuticals, 2021).

Assays:
[1] = system: MDA-MB-231/breast cancer cells; test: MTT-cell proliferation assay; assay type: cell-based, human; conditions: for IC50: 48 h drug exposure, mean of three experiments ± SEM
Text: (§1) The potential anti-cancer activity of all fourteen final synthesized compounds was investigated through MTT cytotoxic assay against two different human solid cancerous cell lines; A549/lung and MDA-MB-231/breast adenocarcinoma. The adopted cell-proliferation assay assessed % cell viability in relation to the reducing activity of cellular NADPH-dependent cellular oxidoreductases on tetrazolium dye, MTT [2,5-diphenyl-3-(4,5-dimethylthiazol-2-yl)tetrazolium bromide salt], for furnishing an easily quantified insoluble chromogenic formazan. For each drug concentration, 0.1, 1, 10, and 100 μM, the % cell-viability was estimated relative to negative control following a complete 48 h of drug treatment. Both 5-fluorouracil (5-FU) and doxorubicin (DOX) were set as positive index comparators. Moreover, the safety profile of the synthesized compounds was further investigated by examining their in-vitro cytotoxicity on non-cancerous cell line; MDCK/kidney cells.
(§2) Evaluating the cytotoxicity of tested compounds on two cancer cell lines (A549/lung and MDA-MB-231/breast adenocarcinoma) and non-cancerous (MDCK/kidney cells) was performed while adopting the formerly described method with small alterations. Cancer cell lines were propagated within Dulbecco’s Modified Eagle Medium-High Glucose (Cat.#: P0103; DMEM_High Glucose with Na.Pyruvate and stable Glutamine, Biowest^TM, Nuaillé, France), while MDA-MB-231 cells were propagated within RPMI-1640 L-Glutamine medium (Cat.#:12-604F; Lonza-Verviers SPRL^TM, Verviers, Belgium). The culturing media were supplemented via 1% antibiotic-antimycotic 100X (Cat.#: L0010; Biowest^TM, Nuaillé, France) and 10% fetal bovine serum (FBS) (Cat.#: EU-000-H; Seralab^TM, West Sussex, UK). Cells were seeded as triplicates within 96-well plate, at 1 × 10^4 cells per well density, after being counted and viability checked using the trypan blue staining solution (Cat.# ab233465; Abcam^TM, Cambridge, MA, USA). Seeded cells were permitted to adhere for 24 h under 5% CO2 and at 37 °C incubating conditions. The assigned compounds were dissolved in 500 µL DMSO affording the stock solution (100 mM) being ready for more diluting within the whole medium to obtain the compound’s final concentrations; 0.1, 1, 10, 100 µM for cell treatments. […] Following 24 h compound-cell treatment, the medium was substituted by fresh one and cells were permitted to develop for 48 h. At four hours prior the end of incubation, 10 μL MTT Sigma-Aldrich^TM (5 mg/mL in PBS 1X without magnesium and calcium; Cat.# 17-516F, Lonza-Verviers^TM, Basel, Switzerland) were added to all wells. Following the complete 48 h incubation, 100 μL DMSO was all added to all wells where they were subsequently centrifuged at 4000 rpm for 5 min allowing the formazan crystals of formazan to precipitate. Color was established and intensities were recorded at 490 nm using Synergy-Neo2® Hybrid MultiMode Plate Reader (BioTek^TM, Winooski, VT, USA), while subtracting the multi-well plates background absorbance at 690 nm. Percentage cell viability was estimated using the subsequent formula: % cell-viability = (average absorbance of treated wells/average absorbance of controls) × 100.

[2] = system: A549/lung adenocarcinoma; test: Morphological assessment; assay type: cell-based, human; conditions: 0.1-100 µM (5-FU 100 µM), 48 h, phase-contrast microscope
[3] = system: MDCK/kidney non-cancerous cells; test: MTT-cell proliferation assay on non-cancerous cell line; assay type: cell-based; conditions: Canis lupus familiaris, MDCK, 48 h, 48 h drug exposure, mean ± SEM
Text: as §1, §2

[4] = system: A549/lung adenocarcinoma cells; test: MTT-cell proliferation assay; assay type: cell-based, human; conditions: for IC50: Homo sapiens, A549, 48 h drug exposure, mean of three experiments ± SEM
Text: as §1, §2

Row | SMILES | melting point [°C] | IC50 ([1]; Homo sapiens, MDA-MB-231, 48 h) [µM] | other results
1 | CN(C)c1ccc(C=NNC(=O)c2cc3ccccc3[nH]2)cc1 [Compound 7c, N′-(4-(dimethylamino)benzylidene)-1H-indole-2-carbohydrazide] | 90 to 92 | – | –
2 | O=c1[nH]cc(F)c(=O)[nH]1 [Compound 5-FU, 5-fluorouracil, reference compound] | – | – | cell morphology alterations [2]: epithelial-mesenchymal transition was observed
3 | Cc1nn(-c2ccc([N+](=O)[O-])c([N+](=O)[O-])c2)c(Cl)c1C=NNC(=O)c1cc2ccccc2[nH]1 [Compound 8f, N′-((5-chloro-1-(3,4-dinitrophenyl)-3-methyl-1H-pyrazol-4-yl)methylene)-1H-indole-2-carbohydrazide] | 204 to 206 | 31.5 | IC50 [1]: 21.6 ± 0.28 µM
4 | COc1ccc(C=NNC(=O)c2cc3ccccc3[nH]2)cc1 [Compound 7b, N′-(4-methoxybenzylidene)-1H-indole-2-carbohydrazide] | 104 to 106 | 43.8 ± 1.09 | IC50 [3]: 28.9 ± 1.49 µM
5 | CC(C)Cc1ccc(-c2nn(-c3ccccc3)cc2C=NNC(=O)c2cc3ccccc3[nH]2)cc1 [Compound 8d, N′-((3-(4-isobutylphenyl)-1-phenyl-1H-pyrazol-4-yl)methylene)-1H-indole-2-carbohydrazide] | 229 to 231 | 21.6 | IC50 [1]: 31.5 ± 4.66 µM
6 | Cc1cccc(C)c1NCc1nc2ccccc2[nH]1 [Compound 3b, N-((1H-benzo[d]imidazol-2-yl)methyl)-2,6-dimethylaniline] | 159 to 161 | – | effect on cell proliferation ([4]; 0.1-100 µM): irregular effects with tendency to increase the cell proliferation
7 | Brc1cccc(NCc2nc3ccccc3[nH]2)c1 [Compound 3c, N-((1H-benzo[d]imidazol-2-yl)methyl)-3-bromoaniline] | 139 to 141 | – | effect on cell proliferation ([1]; 100 µM drug concentration): enhanced cell proliferation

The next lines start with results.

Row | melting point [°C] | IC50 ([1]; Homo sapiens, MDA-MB-231, 48 h) [µM] | SMILES | other results
8 | 139 to 141 | – | Oc1ccc(NCc2nc3ccccc3[nH]2)cc1 [Compound 3d, 4-(((1H-benzo[d]imidazol-2-yl)methyl)amino)phenol] | –
9 | 111 to 113 | – | O=C(NN=Cc1ccccc1)c1cc2ccccc2[nH]1 [Compound 7a, N′-benzylidene-1H-indole-2-carbohydrazide] | –
10 | 139 to 141 | 29.7 ± 4.03 | Cc1cccc(NCc2nc3ccccc3[nH]2)c1 [Compound 3a, N-((1H-benzo[d]imidazol-2-yl)methyl)-3-methylaniline] | –
11 | 219 to 221 | 12.8 ± 3.5 | CC(C)c1ccc(-c2nn(-c3ccccc3)cc2C=NNC(=O)c2cc3ccccc3[nH]2)cc1 [Compound 8c, N′-((3-(4-isopropylphenyl)-1-phenyl-1H-pyrazol-4-yl)methylene)-1H-indole-2-carbohydrazide] | IC50 [4]: 11.6 ± 2.57 µM; IC50 [3]: 87.3 ± 3 µM
12 | 254 to 256 | 12.7 ± 0.84 | CCc1ccc(-c2nn(-c3ccccc3)cc2C=NNC(=O)c2cc3ccccc3[nH]2)cc1 [Compound 8a, N′-((3-(4-ethylphenyl)-1-phenyl-1H-pyrazol-4-yl)methylene)-1H-indole-2-carbohydrazide] | IC50 [4]: 23.1 ± 1.45 µM; IC50 [3]: 73.9 ± 2.3 µM
13 | 252 to 254 | 17.4 ± 3.23 | O=C(NN=Cc1cccnc1)c1cc2ccccc2[nH]1 [Compound 7d, N′-(pyridin-3-ylmethylene)-1H-indole-2-carbohydrazide] | –
